Laboratory results as given in patent US20260315475A1 (priority 2023, published 2026).
Counter-ions that a name gives are not always drawn.

What was measured:
[1] = Phase I single-dose open-label pharmacokinetic study in participants with normal hepatic function and varying degrees of hepatic impairment; assay type: in vivo, human; settings: for MRAUC (metabolite/parent ratio based on AUC): geometric mean (CV %); for tlast: plasma, single oral 200 mg belumosudil, fed, median
Text: The primary objective was to assess the pharmacokinetic (PK) of belumosudil following a single oral dose of belumosudil in participants with mild, moderate, or severe hepatic impairment compared to healthy participants with normal hepatic function.
The secondary objectives were: to evaluate the safety and tolerability of a single oral dose of belumosudil in participants with mild, moderate, or severe hepatic impairment, and in healthy participants with normal hepatic function; to assess the PK of the belumosudil metabolites following a single oral dose of belumosudil in participants with mild, moderate, or severe hepatic impairment compared to healthy participants with normal hepatic function.
Approximately 38 participants were to be enrolled into the following groups based on their hepatic function, as determined according to the Child-Pugh system. • Group 1 (n=approximately 16): matched healthy participants with normal hepatic function • Group 2 (n=8): participants with mild hepatic impairment (Child-Pugh Class A [score of 5 or 6]) • Group 3 (n=8): participants with moderate hepatic impairment (Child-Pugh Class B [score of 7 to 9]) • Group 4 (n=6): participants with severe hepatic impairment (Child-Pugh Class C [score of 10 to 14]).
Healthy participants with normal hepatic function (Group 1) were demographically matched by age (±10 years), sex, and body mass index (BMI; +20%) to participants with hepatic impairment (Groups 2, 3, and 4). Participants with normal hepatic function could be matched to multiple participants across the 3 hepatic impairment groups (mild, moderate, and severe), but could not be matched to more than 1 participant within the same impairment group.
Pharmacokinetic blood samples were obtained from predose until 48 hours postdose (Day 3).
Summary tables, mean (+standard deviation [SD]) figures, overlaying individual figures, and individual figures by hepatic function and time postdose were provided for plasma PK concentrations. Summary tables by hepatic function were provided for all PK parameters, with the exception of terminal phase regression-related diagnostic parameters (λz, λz upper, λ z lower, λz number of points, R2-adj, and % AUCextrap), which were listed only.
All other PK parameters were regarded as secondary and were not participant to inferential statistical analysis.

[2] = cited from earlier work
[3] = cited from earlier work; remark: listed apart in the source
CYP3A4 = settings: in vitro, high concentrations; cited from earlier work
[4] = healthy volunteers, per label; cited from earlier work

In the case of `O=C(O)COc1cccc(-c2nc(Nc3ccc4[nH]ncc4c3)c3ccccc3n2)c1` [KD025m2], the “MRAUC (metabolite/parent ratio based on AUC)” value ([1]; mild hepatic impairment) is reported as 0.135 (73.8%), the “MRAUC (metabolite/parent ratio based on AUC)” value ([1]; mild hepatic impairment, listed as KD025 m2) is reported as 0.135 (73.8) [8] and the “MRAUC (metabolite/parent ratio based on AUC)” value ([1]; moderate hepatic impairment) is reported as 0.318 (70.5%). For the same compound, the “MRAUC (metabolite/parent ratio based on AUC)” value ([1]; moderate hepatic impairment, listed as KD025 m2) was 0.318 (70.5) [7], the “MRAUC (metabolite/parent ratio based on AUC)” value ([1]; normal hepatic function) was 0.103 (68.8%) and the “MRAUC (metabolite/parent ratio based on AUC)” value ([1]; normal hepatic function, listed as KD025 m2) was 0.103 (68.8) [14]. The tlast ([1]; mild hepatic impairment) was 23.9 h, the tlast ([1]; moderate hepatic impairment) was 48.0 h and the tlast ([1]; normal hepatic function) was 14.0 h. The tlast ([1]; severe hepatic impairment) was 48.0 h, the “MRAUC (metabolite/parent ratio based on AUC)” value ([1]; severe hepatic impairment) was 0.680 (63.5%) and the “MRAUC (metabolite/parent ratio based on AUC)” value ([1]; severe hepatic impairment, listed as KD025 m2) was 0.680 (63.5) [4].

In the case of `CC(C)NC(=O)COc1cccc(-c2nc(Nc3ccc4[nH]ncc4c3)c3ccccc3n2)c1` [belumosudil mesylate, 2-{3-[4-(1H-indazol-5-ylamino)-2-quinazolinyl]phenoxy}-N-(propan-2-yl) acetamide methanesulfonate (1:1)], the “solubility in DMF” value ([2]; DMF) is given as “slightly soluble”, the “solubility in DMSO” value ([2]; DMSO) is given as “soluble” and the solubility in methanol ([2]; methanol) is given as “slightly soluble”. For the same compound, the solubility in water ([2]; water) was “practically insoluble”.

For `C=CC(=O)N1CCC[C@@H](n2nc(-c3ccc(Oc4ccccc4)cc3)c3c(N)ncnc32)C1` [ibrutinib], the “overall response rate (ORR)” value ([3]; cGVHD patients with >25% body surface area erythematous rash or NIH mouth score >4) is given as 67% and the “discontinuation rate because of TEAEs” value ([3]; cGVHD patients) is given as 43%.

In the case of `CO[C@H]1/C=C/O[C@@]2(C)Oc3c(C)c(O)c4c(O)c(c5c(nc6cc(C)ccn65)c4c3C2=O)NC(=O)/C(C)=C\C=C\[C@H](C)[C@H](O)[C@@H](C)[C@@H](O)[C@@H](C)[C@H](OC(C)=O)[C@@H]1C` [rifaximin], the CYP3A4 induction (CYP3A4) is listed as “CYP3A4 inducer at high concentrations” and the “drug-drug interaction (DDI) effects” value [4] is listed as “not shown to have drug-drug interaction (DDI) effects”.
